Measured values reported in US8183236B2, “Compounds with HIV-1 integrase inhibitory activity and use thereof as anti-HIV/AIDS therapeutics” (University of Southern California, priority 2007, dated 2012).

Key:
[1] = target: T1, HIV-1 integrase (wild-type IN) (Human immunodeficiency virus type 1 group M subtype B, UniProt P12497); assay: HIV-1 integrase 3′-processing assay (32P-labeled 21-mer, gel); assay type: biochemical
From the text: (§1) The oligonucleotides 21 top, 5′-[…]-3′ (SEQ ID NO:1) and 21 bot, 5′-[…]-3′ (SEQ ID NO:2) were purchased from Norris Cancer Center Core Facility (University of Southern California) and purified by UV shadowing on polyacrylamide gel. To analyze the extent of 3′-processing and strand transfer using 5′-end labeled substrates, 21 top was 5′-end labeled using T4 polynucleotide kinase (Epicentre, Madison, Wis.) and γ [^32P]-ATP (Amersham Biosciences or ICN). The kinase was heat-inactivated and 21 bot was added in 1.5-molar excess. The mixture was heated at 95° C., allowed to cool slowly to room temperature, and run through a spin 25 mini-column (USA Scientific) to separate annealed double-stranded oligonucleotide from unincorporated material.
(§2) To determine the extent of 3′-processing and strand transfer, wild-type IN was preincubated at a final concentration of 200 nM with the inhibitor in reaction buffer (50 mM NaCl, 1 mM HEPES, pH 7.5, 50 μM EDTA, 50 μM dithiothreitol, 10% glycerol (w/v), 7.5 mM MnCl2, 0.1 mg/ml bovine serum albumin, 10 mM 2-mercaptoethanol, 10% dimethyl sulfoxide, and 25 mM MOPS, pH 7.2) at 30° C. for 30 min. Then, 20 nM of the 5′-end ^32P-labeled linear oligonucleotide substrate was added, and incubation was continued for an additional one hour. Reactions were quenched by the addition of an equal volume (16 μl) of loading dye (98% deionized formamide, 10 mM EDTA, 0.025% xylene cyanol and 0.025% bromophenol blue). An aliquot (5 μl) was electrophoresed on a denaturing 20% polyacrylamide gel (0.09 M tris-borate pH 8.3, 2 mM EDTA, 20% acrylamide, 8M urea).
(§3) Gels were dried, exposed in a PhosphorImager cassette, and analyzed using a Typhoon 8610 Variable Mode Imager (Amersham Biosciences) and quantitated using ImageQuant 5.2. Percent inhibition (% I) was calculated using the following equation: %I=100×[1−(D−C)/(N−C)]
(§4) where C, N, and D are the fractions of 21-mer substrate converted to 19-mer (3′-processing product) or strand transfer products for DNA alone, DNA plus IN, and IN plus drug, respectively. The IC50 values were determined by plotting the logarithm of drug concentration versus percent inhibition to obtain concentration that produced 50% inhibition. […]

[2] = target: T1, HIV-1 integrase (wild-type IN); assay: HIV-1 integrase strand transfer assay (32P-labeled 21-mer, gel); assay type: biochemical
From the text: as §1, §2, §3, §4

[3] = wild-type IN 200 nM, 7.5 mM MnCl2, read-out: Inhibition of IN Catalytic Activities IC50 (μM) 3′-processing
[4] = wild-type IN 200 nM, 7.5 mM MnCl2, read-out: Inhibition of IN Catalytic Activities IC50 (μM) Strand Transfer
[5] = unit inferred, read-out: IN inhibition activity 3′-processing
[6] = unit inferred, read-out: IN inhibition activity Strand transfer
[7] = Table 53, structurally diverse compounds, read-out: IN inhibition activity 3′-processing
[8] = Table 53, structurally diverse compounds, read-out: IN inhibition activity Strand transfer
[9] = unit inferred, read-out: HIV-1 IN Inhibitory Activities 3′-processing
[10] = unit inferred, read-out: HIV-1 IN Inhibitory Activities Strand transfer

CCOc1cc(/C=C2/C(=N)N3N=C(C(C)(F)F)SC3=NC2=O)ccc1OCc1ccc(F)cc1 [RT35]
IC50 [1, 3]: 90 µM | IC50 [2, 4]: 19 µM

COc1cc(/C=C2/SC(=S)N(CCC(=O)O)C2=O)ccc1OC(=O)c1ccccc1 [OT17]
IC50 [1, 3]: 42 ± 20 µM | IC50 [2, 4]: 27 ± 11 µM

O=C(O)c1cc(-c2ccc(/C=N/Nc3nc4nonc4nc3Nc3ccc(F)cc3)o2)ccc1Cl [AV15A15]
IC50 [1, 5]: 12 ± 6 µM | IC50 [2, 6]: 6.5 ± 1 µM

CCOc1ccc(C(=O)C2=C(O)C(=O)N(c3nccs3)C2c2ccc(O)c(OC)c2)cc1 (stereo not shown) [AS161]
IC50 [1, 5]: 57 ± 27 µM | IC50 [2, 6]: 30 ± 7 µM

O=C(Nc1ccccc1C(=O)O)c1cccc(S(=O)(=O)Nc2ccc(Oc3ccccc3)cc2)c1 [GLD25]
IC50 [1, 7]: 42 ± 10 µM | IC50 [2, 8]: 18 ± 3 µM

CCCCCn1c(=O)c(C(=O)Nc2cc([N+](=O)[O-])ccc2O)c(O)c2ccccc21 [XR6]
IC50 [1, 3]: 9 µM | IC50 [2, 4]: 9 µM

O=C(Nc1ccc(O)c(-c2nc3ccccc3o2)c1)c1cccc2ccccc12 [XR21]
IC50 [1, 9]: 14 µM | IC50 [2, 10]: 6 µM

CCCCCn1c(=O)c(C(=O)Nc2ccccc2S(N)(=O)=O)c(O)c2ccccc21 [XR13]
IC50 [1, 3]: 11 µM | IC50 [2, 4]: 13 µM

CCc1ccc(C=C2SC(=S)N(CCC(=O)Nc3ccc(O)c(C(=O)O)c3)C2=O)cc1 [Compound X170]
IC50 [1, 3]: 15 ± 3 µM | IC50 [2, 4]: 11 ± 5 µM

COc1cc(C=C2SC(=S)N(CC(=O)Nc3cc(Cl)ccc3O)C2=O)cc(OC)c1OC [Compound X171]
IC50 [1, 3]: 32 ± 11 µM | IC50 [2, 4]: 17 ± 2 µM

O=C(/C=C/c1ccco1)NC(=S)Nc1ccccc1O [Example X205]
IC50 [1, 9]: 57 µM | IC50 [2, 10]: 28 µM

O=C(C1=C(O)C(=O)N(c2nc3ccccc3s2)C1c1ccccn1)c1ccc(Cl)cc1 (stereo not shown) [Compound M28A22]
IC50 [1, 5]: > 100 µM | IC50 [2, 6]: 83 ± 12 µM

O=C(N/N=C1/C(=O)Nc2ccc(F)cc21)/C(=C/C=C/c1ccccc1)NC(=O)c1ccccc1 [Compound X231]
IC50 [1, 9]: 60 µM | IC50 [2, 10]: 38 µM

COc1ccccc1-n1c(SCC(=O)NNC(=O)c2ccccc2O)nnc1-c1ccccc1O [AS9A6]
IC50 [1, 5]: 8 ± 1 µM | IC50 [2, 6]: 6 ± 1 µM

CCn1cc(C(=O)O)c(=O)c2cnc(N3CCN(C(=S)NC(=O)c4ccc(F)c(F)c4)CC3)nc21 [ROM3A4]
IC50 [1, 3]: 64 µM | IC50 [2, 4]: 59 µM

Cc1ccc2[nH]c(/C(C#N)=C\c3ccc(-c4ccc(C(=O)O)c(O)c4)o3)nc2c1 [Compound X132]
IC50 [1, 3]: 16 ± 5 µM | IC50 [2, 4]: 8 ± 1 µM

O=C(O)c1cccc(-c2ccc(/C=N/Nc3nc4nonc4nc3Nc3ccc(F)cc3)o2)c1 [AV30]
IC50 [1, 5]: 10 ± 3 µM | IC50 [1, 3]: 10 µM | IC50 [2, 6]: 4 ± 1 µM | IC50 [2, 4]: 4 µM

O=C(CSc1nc2scc(-c3ccco3)c2c(=O)n1-c1ccccc1)NCc1ccco1 [OT51]
IC50 [1, 3]: 36 ± 29 µM | IC50 [2, 4]: 14 ± 4 µM

COc1ccc(O)c(/C=N/NC(=O)CSc2nnc(-c3ccncc3)n2-c2ccccc2)c1 [MC41]
IC50 [1, 5]: > 100 µM | IC50 [2, 6]: > 100 µM

O=C(O)c1cc(NC(=O)c2cccc3ccccc23)c(C(=O)O)cc1NC(=O)c1cccc2ccccc12 [Compound X8]
IC50 [1, 3]: 28 µM | IC50 [2, 4]: 21 µM

CC1=C(C#N)c2nc(N)c(C#N)c(C)c2/C1=C/c1ccc(-c2ccc(C(=O)O)c(Cl)c2)o1 [AV15A44]
IC50 [1, 5]: > 100 µM | IC50 [2, 6]: 68 ± 22 µM

O=C(CN1C(=O)/C(=C2\SC(=S)N(CC(=O)Nc3ccc(O)cc3)C2=O)SC1=S)Nc1ccc(O)cc1 [Compound X103]
IC50 [1, 3]: 59 ± 37 µM | IC50 [2, 4]: 69 µM

COc1ccc(-c2nnc(SCC(=O)NNC(=O)c3ccccc3O)n2-c2ccccc2)cc1OC [AS9A10]
IC50 [1, 5]: 22 ± 1 µM | IC50 [2, 6]: 21 ± 1 µM

CCn1c(=O)c(C(=O)Nc2ccccc2O)c(O)c2ccccc21 [XR10]
IC50 [1, 3]: 72 µM | IC50 [2, 4]: 32 µM

Nc1cc(N)nc(SCC(=O)O)n1 [GLD2A3]
IC50 [1, 5]: > 100 µM | IC50 [2, 6]: > 100 µM

O=C(c1ccccc1)c1cc(Br)ccc1NC(=O)c1nc[nH]c1C(=O)O [Example X160]
IC50 [1, 9]: 16 µM | IC50 [2, 10]: 17 µM

Cc1ccc(C(=O)C2=C(O)C(=O)N(c3nccs3)C2c2ccc(F)cc2)cc1 (stereo not shown) [Compound M28A7]
IC50 [1, 5]: > 100 µM | IC50 [2, 6]: 78 ± 10 µM

O=C(CN1C(=O)C(=Cc2ccccc2Cl)SC1=S)Nc1cc([N+](=O)[O-])ccc1O [Compound X194]
IC50 [1, 3]: 20 ± 7 µM | IC50 [2, 4]: 18 ± 11 µM

N=C1S/C(=C/c2ccc(-c3ccccc3C(=O)O)o2)C(=O)N1c1ccc2c(c1)OCO2 [Compound T36]
IC50 [1, 5]: 12 ± 6 µM | IC50 [2, 6]: 6.5 ± 1 µM

O=C(N/N=C/c1ccc(/C=N/NC(=O)c2cc(O)cc(O)c2)cc1)c1cc(O)cc(O)c1 [Example X218]
IC50 [1, 9]: 76 µM | IC50 [2, 10]: 56 µM

COc1ccc(C=C2SC(=S)N(CCC(=O)Nc3ccc(C(=O)O)c(O)c3)C2=O)cc1OC [Compound X192]
IC50 [1, 3]: 61 ± 34 µM | IC50 [2, 4]: 17 ± 4 µM

O=C(O)c1cccc(-c2ccc(/C=N/Nc3nnn[nH]3)o2)c1 [AV15A1]
IC50 [1, 5]: > 100 µM | IC50 [2, 6]: 96 ± 6 µM

O=C(O)c1cccc(-c2ccc(/C=N/Nc3nc4ccccc4s3)o2)c1 [AV15A43]
IC50 [1, 5]: 63 ± 7 µM | IC50 [2, 6]: 24 ± 11 µM

O=C(CCCN1C(=O)C(=Cc2cccs2)SC1=S)Nc1ccc(O)c(C(=O)O)c1 [Compound X169]
IC50 [1, 3]: 44 ± 20 µM | IC50 [2, 4]: 35 ± 16 µM

O=c1cc(-c2ccccc2)c2ccc(O)c(O)c2o1 [SR44]
IC50 [1, 3]: 32 µM | IC50 [2, 4]: 16 µM

CCn1cc(C(=O)O)c(=O)c2cc(F)c(N3CCN(C(=O)c4cccc(C)c4)CC3)cc21 [ROM3A3]
IC50 [1, 3]: > 100 µM | IC50 [2, 4]: > 100 µM

O=C(CCN1C(=O)C(=Cc2ccc3c(c2)OCO3)SC1=S)Nc1ccc(C(=O)O)c(O)c1 [Compound X188]
IC50 [1, 3]: 33 ± 23 µM | IC50 [2, 4]: 23 ± 13 µM

CCOc1ccc(C(=O)C2=C(O)C(=O)N(c3nccs3)C2c2ccc(OC)cc2)cc1 (stereo not shown) [Compound M28A11]
IC50 [1, 5]: > 100 µM | IC50 [2, 6]: 90 ± 17 µM

O=C(O)C1CCCCC1C(=O)Nc1ccc(Oc2cccc3ccccc23)cc1 (stereo not shown) [GLD32]
IC50 [1, 7]: > 100 µM | IC50 [2, 8]: 34 ± 7 µM

COc1ccc(/C=C2/SC(=S)N(CC(=O)O)C2=O)cc1OCc1ccccc1 [OT5]
IC50 [1, 3]: > 100 µM | IC50 [2, 4]: 54 ± 17 µM

Nc1c(C(=O)Nc2ccc(Cl)c(Cl)c2)sc2[nH]c(=O)c(C(=O)O)cc12 [GLD44]
IC50 [1, 5]: 14 ± 6 µM | IC50 [2, 6]: 5 ± 4 µM

CCCc1cc2c(-c3ccccc3)cc(=O)oc2cc1OCc1ccc(C(=O)O)o1 [OT32]
IC50 [1, 3]: 72 ± 8 µM | IC50 [2, 4]: 57 ± 22 µM

CCOc1ccc(C=C2SC(=S)N(CCC(=O)Nc3cccc(C(=O)O)c3)C2=O)cc1 [Compound X95]
IC50 [1, 3]: 93 ± 12 µM | IC50 [2, 4]: > 100 µM

O=C(/C=C/c1ccc(Cl)cc1)Nc1ccc(NC(=O)c2ccco2)cc1 [Example X159]
IC50 [1, 9]: 90 µM | IC50 [2, 10]: 91 µM

O=C(NCc1cccs1)c1c[nH]c2ccc(S(=O)(=O)Nc3ccc4c(c3)OCCO4)cc2c1=O [ROM3A11]
IC50 [1, 3]: 91 µM | IC50 [2, 4]: 90 µM

O=C(N/N=C/c1ccc(-c2ccc(Cl)c(C(=O)O)c2)o1)c1ccc(F)cc1 [AV15A41]
IC50 [1, 5]: > 100 µM | IC50 [2, 6]: > 100 µM

C=CCn1c(=O)c(C(=O)Nc2ccccc2S(N)(=O)=O)c(O)c2ccccc21 [XR7]
IC50 [1, 3]: 83 µM | IC50 [2, 4]: 45 µM

Cc1cc([N+](=O)[O-])ccc1-c1ccc(/C=C/c2ccc3cccc(O)c3n2)o1 [RT31]
IC50 [1, 3]: 57 µM | IC50 [2, 4]: > 100 µM

CCn1cc(C(=O)O)c(=O)c2cc(F)c(NNC(=O)C3CCCCC3)cc21 [ROM3A1]
IC50 [1, 3]: > 100 µM | IC50 [2, 4]: > 100 µM

O=C(O)c1cccc(-c2ccc(/C=N/Nc3nc(N4CCOCC4)nc(N4CCOCC4)n3)o2)c1 [AV15A16]
IC50 [1, 5]: > 100 µM | IC50 [2, 6]: > 100 µM

Cc1c(C(c2ccc(O)c(O)c2)c2c(C)n(C)n(-c3ccccc3)c2=O)c(=O)n(-c2ccccc2)n1C [Example X219]
IC50 [1, 9]: 89 µM | IC50 [2, 10]: 31 µM

COc1cc(/C=C2/SC(=S)N(CC(=O)O)C2=O)ccc1OCc1ccccc1Cl [OT4]
IC50 [1, 3]: 48 ± 7 µM | IC50 [2, 4]: 22 ± 4 µM

Clc1ccc(-c2ccc(/C=N/Nc3nc(Nc4ccccc4)nc(Nc4ccccc4)n3)o2)cc1 [AV15A39]
IC50 [1, 5]: > 100 µM | IC50 [2, 6]: > 100 µM

O=C(CCN1C(=O)C(=Cc2ccc3c(c2)OCO3)SC1=S)Nc1ccc(O)c(C(=O)O)c1 [Compound X94]
IC50 [1, 3]: 15 ± 10 µM | IC50 [2, 4]: 17 ± 11 µM

O=C(O)c1cccc(-c2ccc(/C=N/N(c3ccccc3)c3ccccc3)o2)c1 [AV15A27]
IC50 [1, 5]: 42 ± 24 µM | IC50 [2, 6]: 26 ± 12 µM
